Here are results for 28 compounds from patent US8946223B2, “Substituted hydroxamic acids and uses thereof” (Millennium Pharmaceuticals, Inc., priority 2010, dated 2015).

For orientation: IC50 means the midpoint of a concentration-inhibition curve.

SMILES strings stand for the structures. Some results are limits rather than exact numbers.

The target of one assay is T1, purified human HDAC6 (Homo sapiens, UniProt Q9UBN7).
T1 construct: purchased BPS Bioscience 5006
T1 sequence (Q9UBN7 1-1215): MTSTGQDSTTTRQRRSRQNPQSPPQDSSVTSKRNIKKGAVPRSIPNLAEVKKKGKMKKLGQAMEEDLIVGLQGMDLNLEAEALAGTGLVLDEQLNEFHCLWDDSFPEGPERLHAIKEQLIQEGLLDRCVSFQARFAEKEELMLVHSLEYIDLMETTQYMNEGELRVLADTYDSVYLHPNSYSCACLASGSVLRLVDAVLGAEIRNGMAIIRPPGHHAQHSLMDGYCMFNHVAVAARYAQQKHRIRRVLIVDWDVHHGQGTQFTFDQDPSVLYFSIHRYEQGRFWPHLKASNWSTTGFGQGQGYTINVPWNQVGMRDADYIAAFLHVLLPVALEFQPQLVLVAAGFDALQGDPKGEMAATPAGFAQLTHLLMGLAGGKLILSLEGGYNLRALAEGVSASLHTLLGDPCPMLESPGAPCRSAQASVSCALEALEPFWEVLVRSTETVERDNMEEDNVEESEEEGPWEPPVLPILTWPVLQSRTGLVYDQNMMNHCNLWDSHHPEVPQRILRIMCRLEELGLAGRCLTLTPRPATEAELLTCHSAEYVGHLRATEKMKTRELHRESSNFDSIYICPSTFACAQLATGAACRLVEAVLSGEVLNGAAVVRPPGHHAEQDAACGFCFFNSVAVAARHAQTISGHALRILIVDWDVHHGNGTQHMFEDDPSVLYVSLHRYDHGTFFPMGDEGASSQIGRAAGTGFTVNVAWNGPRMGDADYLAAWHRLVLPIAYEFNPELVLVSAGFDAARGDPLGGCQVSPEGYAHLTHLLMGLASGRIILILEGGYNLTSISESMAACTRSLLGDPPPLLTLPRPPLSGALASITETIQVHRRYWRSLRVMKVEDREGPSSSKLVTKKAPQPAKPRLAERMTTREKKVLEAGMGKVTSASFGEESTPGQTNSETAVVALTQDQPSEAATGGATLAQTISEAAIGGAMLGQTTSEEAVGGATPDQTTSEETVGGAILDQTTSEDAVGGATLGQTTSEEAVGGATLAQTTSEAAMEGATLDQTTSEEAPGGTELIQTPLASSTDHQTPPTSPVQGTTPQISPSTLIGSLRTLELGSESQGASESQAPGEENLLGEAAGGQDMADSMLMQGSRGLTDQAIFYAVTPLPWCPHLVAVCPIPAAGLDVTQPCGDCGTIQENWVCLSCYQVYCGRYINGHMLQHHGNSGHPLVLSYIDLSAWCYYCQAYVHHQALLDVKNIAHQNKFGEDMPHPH
In words: HDAC6 enzyme assay. Format: biochemical. The conditions noted are these: bin: less than 100 nM. How it is done: To measure the inhibition of HDAC6 activity, purified human HDAC6 (BPS Bioscience; Cat. No. 5006) is incubated with substrate Ac-Arg-Gly-Lys(Ac)-AMC peptide (Bachem Biosciences; Cat. No. I-1925) for 1 hour at 30° C. in the presence of test compounds or vehicle DMSO control. The reaction is stopped with the HDAC inhibitor trichostatin A (Sigma; Cat. No. T8552) and the amount of Arg-Gly-Lys-AMC generated is quantitated by digestion with trypsin (Sigma; Cat. No. T1426) and subsequent measurement of the amount of AMC released using a fluorescent plate reader (Pherastar; BMG Technologies) set at Ex 340 nm and Em 460 nm. Concentration response curves are generated by calculating the fluorescence increase in test compound-treated samples relative to DMSO-treated controls, and enzyme inhibition (IC50) values are determined from those curves.
The compound `O=C(NO)c1cn2c(n1)CN(C(=O)c1cc3ccccc3s1)CC2` [Compound I-44, 7-(1-benzothien-2-ylcarbonyl)-N-hydroxy-5,6,7,8-tetrahydroimidazo[1,2-a]pyrazine-2-carboxamide] gave a 50% inhibitory concentration (IC50) of less than 0.1 µM.

Compound `Cn1c(C(=O)N2CCn3cc(C(=O)NO)cc3C2)ccc1S(N)(=O)=O` [Compound I-47, 2-{[5-(aminosulfonyl)-1-methyl-1H-pyrrol-2-yl]carbonyl}-N-hydroxy-1,2,3,4-tetrahydropyrrolo[1,2-a]pyrazine-7-carboxamide] returned a half-inhibitory concentration (IC50) of less than 0.1 µM. Regarding `O=C(NO)c1cc2n(c1)CCN(C(=O)c1ccc(-c3ccccc3)cc1)C2` [Compound I-51, 2-(biphenyl-4-ylcarbonyl)-N-hydroxy-1,2,3,4-tetrahydropyrrolo[1,2-a]pyrazine-7-carboxamide], the IC50 was less than 0.1 µM. Turning to `COc1ccc(C(=O)N2CCn3cc(C(=O)NO)cc3C2)cc1` [Compound I-68, N-hydroxy-2-(4-methoxybenzoyl)-1,2,3,4-tetrahydropyrrolo[1,2-a]pyrazine-7-carboxamide], the half-maximal inhibitory concentration (IC50) is less than 0.1 µM.

Compound `O=C(NO)c1cc2n(c1)CCN(C(=O)c1c[nH]c3ccccc13)C2` [Compound I-75, N-hydroxy-2-(1H-indol-3-ylcarbonyl)-1,2,3,4-tetrahydropyrrolo[1,2-a]pyrazine-7-carboxamide] yielded a half-maximal inhibitory concentration (IC50) of less than 0.1 µM. With `Cc1cc(C(=O)N2CCn3cc(C(=O)NO)cc3C2)c(C)o1` [Compound I-85, 2-(2,5-dimethyl-3-furoyl)-N-hydroxy-1,2,3,4-tetrahydropyrrolo[1,2-a]pyrazine-7-carboxamide], the IC50 was less than 0.1 µM.

The compound `Cc1c(C(=O)N2CCn3cc(C(=O)NO)cc3C2)cc(-c2ccccc2)n1-c1ccccc1` [Compound I-87, N-hydroxy-2-[(2-methyl-1,5-diphenyl-1H-pyrrol-3-yl)carbonyl]-1,2,3,4-tetrahydropyrrolo[1,2-a]pyrazine-7-carboxamide] displayed an IC50 of less than 0.1 µM.

The same assay, now with this note: bins: greater than 1 μM and less than 10 μM; greater than 10 μM.
As to `CC(C)N1CCn2nc(C(=O)NO)cc2C1=O` [Compound I-46, N-hydroxy-5-isopropyl-4-oxo-4,5,6,7-tetrahydropyrazolo[1,5-a]pyrazine-2-carboxamide], the IC50 was 1 to 10 µM. The same measure, in the same setting: as for `COc1ccc(C(=O)N2CCCn3nc(C(=O)NO)cc3C2)cc1` [Compound I-53, N-hydroxy-5-(4-methoxybenzoyl)-5,6,7,8-tetrahydro-4H-pyrazolo[1,5-a][1,4]diazepine-2-carboxamide], the figure is greater than 10 µM; as for `CS(=O)(=O)c1cccc(C(=O)N2CCn3cc(C(=O)NO)cc3C2)c1` [Compound I-54, N-hydroxy-2-[3-(methylsulfonyl)benzoyl]-1,2,3,4-tetrahydropyrrolo[1,2-a]pyrazine-7-carboxamide], greater than 10 µM.

Compound `Cc1nc(C(=O)N2CCn3cc(C(=O)NO)nc3C2)cs1` [Compound I-55, N-hydroxy-7-[(2-methyl-1,3-thiazol-4-yl)carbonyl]-5,6,7,8-tetrahydroimidazo[1,2-a]pyrazine-2-carboxamide] displayed an IC50 of 1 to 10 µM. Turning to `O=C(NO)c1cc2n(c1)CCCN(C(=O)c1ccc(Cl)cc1)C2` [Compound I-56, 2-(4-chlorobenzoyl)-N-hydroxy-2,3,4,5-tetrahydro-1H-pyrrolo[1,2-a][1,4]diazepine-8-carboxamide], the IC50 lay within 1 to 10 µM. With `CC(C)(C)CC(=O)N1CCCn2cc(C(=O)NO)cc2C1` [Compound I-59, 2-(3,3-dimethylbutanoyl)-N-hydroxy-2,3,4,5-tetrahydro-1H-pyrrolo[1,2-a][1,4]diazepine-8-carboxamide], the IC50 lay within 1 to 10 µM.

For the compound `Cn1nc(C(C)(C)C)cc1C(=O)N1CCCn2cc(C(=O)NO)cc2C1` [Compound I-63, 2-[(3-tert-butyl-1-methyl-1H-pyrazol-5-yl)carbonyl]-N-hydroxy-2,3,4,5-tetrahydro-1H-pyrrolo[1,2-a][1,4]diazepine-8-carboxamide], the IC50 lay within 1 to 10 µM.

Turning to `O=C(NO)c1cc2n(c1)CCN(C(=O)c1cnn(-c3ccccc3)c1C(F)(F)F)C2` [Compound I-64, N-hydroxy-2-{[1-phenyl-5-(trifluoromethyl)-1H-pyrazol-4-yl]carbonyl}-1,2,3,4-tetrahydropyrrolo[1,2-a]pyrazine-7-carboxamide], the half-inhibitory concentration (IC50) lay in the range of 1 to 10 µM. In turn, `Cc1ccc(C(=O)N2CCCn3cc(C(=O)NO)cc3C2)s1` [Compound I-69, N-hydroxy-2-[(5-methyl-2-thienyl)carbonyl]-2,3,4,5-tetrahydro-1H-pyrrolo [1,2-a][1,4]diazepine-8-carboxamide] displayed an IC50 greater than 10 µM. For the compound `Cn1cccc1C(=O)N1CCCn2nc(C(=O)NO)cc2C1` [Compound I-71, N-hydroxy-5-[(1-methyl-1H-pyrrol-2-yl)carbonyl]-5,6,7,8-tetrahydro-4H-pyrazolo[1,5-a][1,4]diazepine-2-carboxamide], the IC50 was greater than 10 µM. In the case of `O=C(NO)c1cc2n(n1)CCCN(C(=O)C13CC4CC(CC(C4)C1)C3)C2` [Compound I-72, 5-(1-adamantylcarbonyl)-N-hydroxy-5,6,7,8-tetrahydro-4H-pyrazolo[1,5-a][1,4]diazepine-2-carboxamide], the IC50 was in the range of 1 to 10 µM. For `Cc1nc(C(=O)N2CCn3cc(C(=O)NO)cc3C2)cs1` [Compound I-73, N-hydroxy-2-[(2-methyl-1,3-thiazol-4-yl)carbonyl]-1,2,3,4-tetrahydropyrrolo[1,2-a]pyrazine-7-carboxamide], the IC50 was greater than 10 µM. `CC1(C(=O)N2CCCn3cc(C(=O)NO)cc3C2)CCCCC1` [Compound I-74, N-hydroxy-2-[(1-methylcyclohexyl)carbonyl]-2,3,4,5-tetrahydro-1H-pyrrolo[1,2-a][1,4]diazepine-8-carboxamide] showed an IC50 of 1 to 10 µM.

In the case of `CC(C)CCN1CCn2nc(C(=O)NO)cc2C1=O` [Compound I-77, N-hydroxy-5-(3-methylbutyl)-4-oxo-4,5,6,7-tetrahydropyrazolo[1,5-a]pyrazine-2-carboxamide], the IC50 was in the range of 1 to 10 µM. On the same count and under the same terms, as for `O=C(NO)c1cc2n(c1)CCCN(C(=O)c1c(Cl)cccc1Cl)C2` [Compound I-79, 2-(2,6-dichlorobenzoyl)-N-hydroxy-2,3,4,5-tetrahydro-1H-pyrrolo[1,2-a][1,4]diazepine-8-carboxamide], the figure is 1 to 10 µM; as for `Cc1ccc(-c2ccc(C(=O)N3CCCn4cc(C(=O)NO)cc4C3)cc2)cc1` [Compound I-80, N-hydroxy-2-[(4′-methylbiphenyl-4-yl)carbonyl]-2,3,4,5-tetrahydro-1H-pyrrolo[1,2-a][1,4]diazepine-8-carboxamide], 1 to 10 µM. Consider `Cc1oc(-c2ccccc2)nc1CC(=O)N1CCn2cc(C(=O)NO)cc2C1` [Compound I-82, N-hydroxy-2-[(5-methyl-2-phenyl-1,3-oxazol-4-yl)acetyl]-1,2,3,4-tetrahydropyrrolo[1,2-a]pyrazine-7-carboxamide], for which the IC50 is greater than 10 µM. In turn, `O=C(NO)c1cc2n(n1)CCN(CC1CC1)C2=O` [Compound I-83, 5-(cyclopropylmethyl)-N-hydroxy-4-oxo-4,5,6,7-tetrahydropyrazolo[1,5-a]pyrazine-2-carboxamide] gave a half-maximal inhibitory concentration (IC50) of 1 to 10 µM. Compound `O=C(NO)c1cc2n(c1)CCN(C(=O)c1cnn3cccnc13)C2` [Compound I-84, N-hydroxy-2-(pyrazolo[1,5-a]pyrimidin-3-ylcarbonyl)-1,2,3,4-tetrahydropyrrolo[1,2-a]pyrazine-7-carboxamide] yielded a half-maximal inhibitory concentration (IC50) greater than 10 µM. Take `CCCCN1CCn2cc(C(=O)NO)cc2C1` [Compound I-86, 2-butyl-N-hydroxy-1,2,3,4-tetrahydropyrrolo[1,2-a]pyrazine-7-carboxamide]: the IC50 is greater than 10 µM.

In turn, `CCOCCN1CCn2nc(C(=O)NO)cc2C1=O` [Compound I-88, 5-(2-ethoxyethyl)-N-hydroxy-4-oxo-4,5,6,7-tetrahydropyrazolo[1,5-a]pyrazine-2-carboxamide] yielded a half-maximal inhibitory concentration (IC50) of 1 to 10 µM.
